Experimental data: patent US11396517B1, “Exo-aza spiro inhibitors of menin-MLL interaction” (Janssen Pharmaceutica NV, priority 2017, dated 2022)
Like-named read-outs stand apart in the source and are kept apart here.

Columns and labels:
[1] = test system: MOLM14; assay: Proliferation assay B (spheroid assay) MOLM14; format: cell-based, human; conditions: MOLM14 cells, confluence at day 8, absolute IC50, read-out: (3b) Spheroid assay MOLM14 (IC50(μM)) Assay B
Summary of the method: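 Leukemia cells grown as spheroids in ultra-low-attachment round-bottom wells with compound at 0.3% DMSO for 8 d at 37 °C. Confluence imaged at day 8 as spheroid size, normalized between DMSO and 1 μM staurosporine controls; absolute IC50 from sigmoidal fit with bounds fixed at 0 and 100%.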

[2] = test system: MV-4-11; assay: Proliferation assay B (spheroid assay) MV-4-11; format: cell-based, human; conditions: MV-4-11 cells, confluence at day 8, absolute IC50, read-out: (3b) Spheroid assay MV-4--11 (IC50(μM)) Assay B
Method: 3b) Proliferation Assay B
(§1) The anti-proliferative effect of menin/MLL protein/protein interaction inhibitor test compounds was assessed in human leukemia cell lines. The cell lines MV-4-11 and MOLM14 harbor MILL translocations and express the MILL fusion proteins MLL-AF4 and MLL-AF9, respectively, as well as the wildtype protein from the second allele. […] K562 was used as a control cell line containing two MLL wildtype alleles in order to exclude compounds that display general cytotoxic effects.
(§2) MV-4-11 and MOLM14 were cultured in RPMI-1640 (Sigma Aldrich) supplemented with 10% fetal bovine serum (HyClone), 2 mM L-glutamine (Sigma Aldrich) and 50 μg/ml gentamycin (Gibco). K562 were propagated in RPMI-1640 (Sigma Aldrich) supplemented with 20% fetal bovine serum (HyClone), 2 mM L-glutamine (Sigma Aldrich) and 50 μg/ml gentamycin (Gibco).
(§3) In order to assess the anti-proliferative effects, 1,500 MV-4-11, 300 MOLM14 cells or 750 K562 cells were seeded in 200 μl media per well in 96-well round bottom, ultra-low attachment plates (Costar, catalogue number 7007). Cell seeding numbers were chosen based on growth curves to ensure linear growth throughout the experiment. Test compounds were added at different concentrations and the DMSO content was normalized to 0.3%. Cells were incubated for 8 d at 37° C. and 5% CO2. Spheroid like growth was measured in real-time by live-cell imaging (IncuCyteZOOM, Essenbio, 4× objective) acquiring images at day 8. Confluence (%) as a measure of spheroid size was determined using an integrated analysis tool.
In order to determine the effect of the test compounds over time, the confluence in each well as a measure of spheroid size, was calculated. Confluence […] at the beginning of the experiment (t=0) was used as baseline for the calculation.
Absolute IC50 values were calculated as percent change in confluence as follows:
LC=Low Control: cells treated with 1 μM of the cytotoxic agent staurosporin
HC=High Control: Mean confluence (%) (DMSO treated cells) % Effect=100−(100*(Sample−LC)/(HC−LC))
To determine the IC50 a curve is fitted to the plot of % Effect vs Log 10 compound concentration using a sigmoidal fit with a variable slope and fixing the maximum to 100% and the minimum to 0%.

[3] = biological target: T1, menin (Homo sapiens, UniProt O00255, T541A); assay: Menin/MLL homogenous time-resolved fluorescence (HTRF) assay; format: binding; conditions: location 2; read-out: (2) location 2 Menin HTRF assay (IC50 (nM))
T1 construct: Menin (a.a. 1-610-6×his tag)
T1 sequence (O00255 with tags, fused parts or gaps T541A): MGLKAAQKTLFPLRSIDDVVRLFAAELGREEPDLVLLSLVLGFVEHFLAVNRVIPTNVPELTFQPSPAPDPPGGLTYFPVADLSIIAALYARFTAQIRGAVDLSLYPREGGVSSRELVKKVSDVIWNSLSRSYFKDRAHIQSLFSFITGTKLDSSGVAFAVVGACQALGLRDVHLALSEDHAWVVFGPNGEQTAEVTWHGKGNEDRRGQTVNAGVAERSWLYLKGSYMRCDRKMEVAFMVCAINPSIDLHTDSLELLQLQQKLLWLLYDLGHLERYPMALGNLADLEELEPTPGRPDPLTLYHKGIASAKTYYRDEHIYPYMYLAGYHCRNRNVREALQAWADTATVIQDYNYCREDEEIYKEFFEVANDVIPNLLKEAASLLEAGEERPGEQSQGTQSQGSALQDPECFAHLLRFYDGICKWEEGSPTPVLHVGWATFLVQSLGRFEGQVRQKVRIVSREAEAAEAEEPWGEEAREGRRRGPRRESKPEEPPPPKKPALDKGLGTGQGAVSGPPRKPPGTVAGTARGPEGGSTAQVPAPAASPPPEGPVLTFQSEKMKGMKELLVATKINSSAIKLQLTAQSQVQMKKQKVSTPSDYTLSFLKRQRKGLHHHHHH
Summary of the method: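 Terbium-labeled menin (aa 1-610, His-tagged; […]) preincubated 5 min with compound, then 75 nM FITC-MBM1 peptide for 15 min, ambient, Tris pH 7.5, 0.5% DMSO. HTRF 520/490 ratio; 11-point 3-fold titration; IC50 from % inhibition fit.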

[4] = test system: MV-4-11; assay: Proliferation assay A (spheroid assay) MV-4-11; format: cell-based, human; conditions: MV-4-11 cells, 8 d, AUC of confluence against time, absolute IC50, read-out: (3a) Spheroid assay MV-4-11 (IC50(μM)) Assay A
Method: 3a) Proliferation Assay A
as §1, §2
as §3, with “MOLM14” for “MOLM14 cells”, “monitored” for “measured”, “one image every four hours for 8 d.” for “images at day 8.”
In order to determine the cumulative effect of the test compounds over time, the area under the curve (AUC) in a plot of confluence against time was calculated. Confluence at the beginning of the experiment (t=0) was used as baseline for the AUC calculation.
Absolute IC50 values were calculated according to the following procedure: % Control=(AUC sample/AUC control)*100
AUC control mean AUC of control values (cells without compound/DMSO as vehicle control)
A non-linear curve fit was applied using the least squares (ordinary) fit method to the plot of % control versus compound concentration. Based on this, the absolute IC50 value (half maximal inhibitory concentration of the test compound causing an anti-proliferative effect of 50% relative to the vehicle control) was calculated.

Row | IC50 ([1]; Homo sapiens, MOLM-14, 192 h) | IC50 ([2]; Homo sapiens, MV4-11, 192 h) | IC50 [3] | IC50 [1] | IC50 [2] | IC50 ([4]; Homo sapiens, MV4-11, 192 h) | IC50 [4] | Compound
1 | > 3.75 µM | > 3.75 µM | 2290 nM |  |  |  |  | O=C(c1ccc(NC2CC3(CCN(c4ncnc5sc(CC(F)(F)F)cc45)C3)C2)cc1)N1CC2(COC2)C1 (single isomer, unassigned) [Compound 413]
2 | > 3.75 µM | 3.81 µM | 34.3 nM |  |  |  |  | N#CCc1ccc(NC2CCC3(CCN(c4ncnc5sc(CC(F)(F)F)cc45)C3)C2)cc1F (stereo not shown) [Compound 129]
3 | 3.41 µM | 1.22 µM | 4.2 nM |  |  |  |  | FC(F)(F)Cc1cc2c(N3CCC4(CC(Nc5ccc6cnoc6c5)C4)C3)ncnc2s1 (mixture of isomers) [Compound 315]
4 | > 3.75 µM | > 3.75 µM | 8.7 nM |  |  |  |  | NC(=O)Cn1c(=O)[nH]c2cc(CNC3CCC4(C3)CN(c3ncnc5sc(CC(F)(F)F)cc35)C4)ccc21 (stereo not shown) [Compound 53, 2-(2-oxo-5-(((2-(6-(2,2,2-trifluoroethyl)thieno[2,3-d]-pyrimidin-4-yl)-2-azaspiro[3.4]octan-6-yl)amino)methyl)-2,3-dihydro-1H-benzo[d]-imidazol-1-yl)acetamide]
5 | > 3.75 µM | 2.84 µM | 90 nM |  |  |  |  | N#Cc1ccccc1NC1CC2(CCN(c3ncnc4sc(CC(F)(F)F)cc34)C2)C1 (mixture of isomers) [Compound 162]
6 | > 3.75 µM | > 3.75 µM | 68.7 nM |  |  |  |  | COC[C@@H]1CN(C(=O)c2ccc(NC3CC4(CCN(c5ncnc6sc(CC(F)(F)F)cc56)C4)C3)cc2)CCO1 (single isomer, unassigned) [Compound 410]
7 | > 3.75 µM | > 3.75 µM | 54.3 nM |  |  |  |  | O=c1[nH]c2ccc(NC3CCC4(C3)CN(c3ncnc5sc(CC(F)(F)F)cc35)C4)cc2[nH]1 (stereo not shown) [Compound 298]
8 | 1.21 µM | 0.3 µM | 2.5 nM |  |  |  |  | CN(C)CCNC(=O)c1ccc(NC2CC3(CCN(c4ncnc5sc(CC(F)(F)F)cc45)C3)C2)cc1 (racemic) [Compound 73]
9 | > 3.75 µM | > 3.75 µM | 42.7 nM |  |  |  |  | Cc1cc2ccc(NC3CCC4(C3)CN(c3ncnc5sc(CC(F)(F)F)cc35)C4)cc2[nH]1 (stereo not shown) [Compound 289]
10 |  | 1.95 µM | 22.7 nM |  |  |  |  | CN1CCN(Cc2cc(NC3CC4(CCN(c5ncnc6sc(CC(F)(F)F)cc56)C4)C3)ccc2C#N)CC1 (mixture of isomers) [Compound 225]
11 | 0.59 µM | 0.17 µM | 14.2 nM |  |  |  |  | CN1CCC(c2cc(NC3CC4(CCN(c5ncnc6sc(CC(F)(F)F)cc56)C4)C3)ccc2C#N)CC1 (single isomer, unassigned) [Compound 79]
12 |  |  | 13 nM | 2.35 µM | 0.67 µM |  |  | FC(F)(F)Cc1cc2c(N3CCC4(CC(Nc5ccncc5)C4)C3)ncnc2s1 (stereo not shown) [Compound 154]
13 |  | 0.17 µM | 2.8 nM | 1.5 µM |  |  |  | CN(C)CCNC(=O)c1ccc(NC2CC3(CCN(c4ncnc5sc(CC(F)(F)F)cc45)C3)C2)nc1 (single isomer, unassigned) [Compound 254]
14 | > 3.75 µM | > 3.75 µM | 77.6 nM |  |  |  |  | N#Cc1cccc(NC2CC3(CCN(c4ncnc5sc(CC(F)(F)F)cc45)C3)C2)c1 (mixture of isomers) [Compound 163]
15 |  | 1.14 µM | 8.6 nM |  |  |  |  | CN1CCN(c2cc(NC3CC4(CCN(c5ncnc6sc(CC(F)(F)F)cc56)C4)C3)ccc2C#N)CC1 (mixture of isomers) [Compound 240]
16 | > 3.75 µM |  | 8.4 nM |  |  | 0.56 µM |  | FC(F)(F)Cc1cc2c(N3CCC4(CC(Nc5ccc(-c6cn[nH]c6)cc5)C4)C3)ncnc2s1 (single isomer, unassigned) [Compound 327]
17 | 1.08 µM | 0.3 µM | 2.7 nM |  |  |  |  | CNC(=O)c1ccc(NC2CC3(CCN(c4ncnc5sc(CC(F)(F)F)cc45)C3)C2)nc1 (stereo not shown) [Compound 70]
18 | > 3.75 µM | > 3.75 µM | 38 nM |  |  |  |  | Cn1nnc2ccc(NC3CC4(CCN(c5ncnc6sc(CC(F)(F)F)cc56)C4)C3)cc21 (mixture of isomers) [Compound 216]
19 | 0.92 µM |  | 2.4 nM |  |  | 0.14 µM |  | CNC(=O)c1ccc(NC2CC3(CCN(c4nc(NC)nc5sc(CC(F)(F)F)cc45)C3)C2)cc1 (stereo not shown) [Compound 64]
20 |  | 1.09 µM | 2.4 nM |  |  |  |  | CS(=O)(=O)NCCCNC(=O)c1ccc(NC2CC3(CCN(c4ncnc5sc(CC(F)(F)F)cc45)C3)C2)nc1 (single isomer, unassigned) [Compound 275]
21 |  | > 3.75 µM | 33.6 nM |  |  |  |  | CNC(=O)c1ccc(NC2CC3(CCN(c4ncnc5sc(CC(F)(F)F)cc45)C3)C2)cc1NCCN(C)C (mixture of isomers) [Compound 239]
22 | 3.03 µM |  | 50.3 nM |  |  | 0.84 µM |  | COc1cc(NC2CC3(CCN(c4ncnc5sc(CC(F)(F)F)cc45)C3)C2)ccn1 (mixture of isomers) [Compound 341]
23 | 3.07 µM |  | 8.1 nM |  |  | 0.6 µM |  | CNS(=O)(=O)c1ccc(NC2CC3(CCN(c4ncnc5sc(CC(F)(F)F)cc45)C3)C2)cc1 (single isomer, unassigned) [Compound 318]
24 |  |  | 34.6 nM | 0.82 µM |  |  | 1.27 µM | CNC(=O)c1ccc(NC2CC3(CCN(c4ncnc5sc(CC(F)(F)F)cc45)C3)C2)cc1 (single isomer, unassigned) [Compound 95]

Row | Compound | IC50 ([1]; Homo sapiens, MOLM-14, 192 h) | IC50 ([2]; Homo sapiens, MV4-11, 192 h) | IC50 [3] | IC50 [1] | IC50 [2] | IC50 ([4]; Homo sapiens, MV4-11, 192 h) | IC50 [4]
25 | N#CCc1ccc(NC2CC3(CCN(c4nc(N)nc5sc(CC(F)(F)F)cc45)C3)C2)cc1 (mixture of isomers) [Compound 377] |  |  | 7.5 nM |  |  | 1.12 µM | 
